From patent US9073907B2, “Thiazoles derivatives and their use as positive allosteric modulators of metabotropic glutamate receptors” (Addex Pharma S.A., priority 2009, dated 2015) come the findings set out here.

The term melting point denotes the temperature, or range, at which the solid turns liquid. `Fc1cnc(Nc2nc(-c3cn[nH]c3)cs2)nc1` [Compound 1-55, N-(5-Fluoropyrimidin-2-yl)-4-(1H-pyrazol-4-yl)thiazol-2-amine] gave a melting point of 256 °C.

`Cc1ccc(F)c(Nc2nc(-c3cn[nH]c3)c(C)s2)n1` [Compound 1-23, N-(3-Fluoro-6-methylpyridin-2-yl)-5-methyl-4-(1H-pyrazol-4-yl)thiazol-2-amine] came in with a melting point of 323 °C.

In the case of `Fc1sc(Nc2cccc(Cl)n2)nc1-c1cn[nH]c1` [Compound 1-13, N-(6-Chloropyridin-2-yl)-5-fluoro-4-(1H-pyrazol-4-yl)thiazol-2-amine], the melting point is 239 °C.

Compound `Cc1sc(Nc2ncccc2I)nc1-c1cn[nH]c1` [Compound 1-15, N-(3-Iodopyridin-2-yl)-5-methyl-4-(1H-pyrazol-4-yl)thiazol-2-amine] registered a melting point of 243 to 245 °C.

In turn, `Cc1nc(Nc2nc(-c3cn[nH]c3)cs2)cs1` [Compound 1-41, N-(2-Methylthiazol-4-yl)-4-(1H-pyrazol-4-yl)thiazol-2-amine] had a melting point of 236 to 239 °C.

`c1ccc(Nc2nc(-c3cn[nH]c3)c(N3CCOCC3)s2)nc1` [Compound 1-2, 5-Morpholino-4-(1H-pyrazol-4-yl)-N-(pyridin-2-yl)thiazol-2-amine] showed a melting point of 230 to 231 °C.

On to `O=C(c1[nH]ncc1-c1csc(Nc2ncccn2)n1)C1CC1` [Compound 1-66, Cyclopropyl(4-(2-(pyrimidin-2-ylamino)thiazol-4-yl)-1H-pyrazol-5-yl)methanone], for which the melting point came to 244 °C.

`CN(C)c1sc(Nc2ccccn2)nc1-c1cn[nH]c1` [Compound 1-12, N^5,N^5-Dimethyl-4-(1H-pyrazol-4-yl)-N^2-(pyridin-2-yl)thiazole-2,5-diamine] gave a melting point of 232 °C.

With `Cc1sc(Nc2ccccn2)nc1-c1cnn(C(=O)c2ccccn2)c1` [Compound 1-63, (4-(5-Methyl-2-(pyridin-2-ylamino)thiazol-4-yl)-1H-pyrazol-1-yl)(pyridin-2-yl)methanone], the melting point was 226 to 227 °C.

With `CCc1ccnc(Nc2nc(-c3cn[nH]c3)c(C)s2)n1` [Compound 1-46, N-(4-Ethylpyrimidin-2-yl)-5-methyl-4-(1H-pyrazol-4-yl)thiazol-2-amine], the melting point lay in the range of 223 to 225 °C.

As for `COc1ccc(Nc2nc(-c3cn[nH]c3)c(C)s2)nc1` [Compound 1-24, N-(5-M ethoxypyridin-2-yl)-5-methyl-4-(1H-pyrazol-4-yl)thiazol-2-amine], the melting point turned out to be 229 °C.

The compound `Cc1ccnc(Nc2nc(-c3cn[nH]c3)cs2)n1` [Compound 1-31, N-(4-Methylpyrimidin-2-yl)-4-(1H-pyrazol-4-yl)thiazol-2-amine] had a melting point of 307 to 310 °C.

`Cc1sc(Nc2nccc(C(C)C)n2)nc1-c1cn[nH]c1` [Compound 1-52, N-(4-Isopropylpyrimidin-2-yl)-5-methyl-4-(1H-pyrazol-4-yl)thiazol-2-amine] gave a melting point of 249 to 252 °C.

`Cc1sc(Nc2cc(F)ccn2)nc1-c1cn[nH]c1` [Compound 1-19, N-(4-Fluoropyridin-2-yl)-5-methyl-4-(1H-pyrazol-4-yl)thiazol-2-amine] returned a melting point of 283 °C.

In turn, `c1cnc(Nc2nc(-c3cn[nH]c3)cs2)nc1` [Compound 1-59, 4-(1H-Pyrazol-4-yl)-N-(pyrimidin-2-yl)thiazol-2-amine] came in with a melting point of 311 to 312 °C.

Consider `c1ccc(Nc2nc(-c3cn[nH]c3)c(N3CCCCC3)s2)nc1` [Compound 1-4, 5-(Piperidin-1-yl)-4-(1H-pyrazol-4-yl)-N-(pyridin-2-yl)thiazol-2-amine], for which the melting point was found to be 238 °C.

Turning to `Cc1cccc(Nc2nc(-c3cnn(C(N)=O)c3)c(F)s2)n1` [Compound 1-30, 4-(5-Fluoro-2-(6-methylpyridin-2-ylamino)thiazol-4-yl)-1H-pyrazole-1-carboxamide], the melting point was 209 °C.

For the compound `Cc1sc(Nc2cccc(CF)n2)nc1-c1cn[nH]c1` [Compound 1-43, N-(6-(Fluoromethyl)pyridin-2-yl)-5-methyl-4-(1H-pyrazol-4-yl)thiazol-2-amine], the melting point lay in the range of 270 to 280 °C.

`CC(=O)c1[nH]ncc1-c1csc(Nc2nccc(C)n2)n1` [Compound 1-54, 1-(4-(2-(4-Methylpyrimidin-2-ylamino)thiazol-4-yl)-1H-pyrazol-5-yl)ethanone] registered a melting point of 305 to 310 °C.

`CC(=O)c1[nH]ncc1-c1csc(Nc2ncccn2)n1` [Compound 1-67, 1-(4-(2-(Pyrimidin-2-ylamino)thiazol-4-yl)-1H-pyrazol-5-yl)ethanone] had a melting point of 287 °C.

In the case of `Fc1sc(Nc2cnccn2)nc1-c1cn[nH]c1` [Compound 1-25, 5-Fluoro-N-(pyrazin-2-yl)-4-(1H-pyrazol-4-yl)thiazol-2-amine], the melting point amounted to 279 °C.

Consider `Cc1sc(Nc2cccc(I)n2)nc1-c1cn[nH]c1` [Compound 1-14, N-(6-Iodopyridin-2-yl)-5-methyl-4-(1H-pyrazol-4-yl)thiazol-2-amine], for which the melting point is > 260 °C.

As for `Cc1ccnc(Nc2nc(-c3cn[nH]c3)c(C)s2)n1` [Compound 1-33, 5-Methyl-N-(4-methylpyrimidin-2-yl)-4-(1H-pyrazol-4-yl)thiazol-2-amine], the melting point was determined as 255 °C.

`CN1CCC(Nc2nc(-c3cn[nH]c3)cs2)C1=O` (stereo not shown) [Compound 1-50, 3-(4-(1H-Pyrazol-4-yl)thiazol-2-ylamino)-1-methylpyrrolidin-2-one] registered a melting point of 196 to 204 °C.

Compound `COCc1n[nH]cc1-c1csc(Nc2ccccn2)n1` [Compound 1-40, 4-(3-(Methoxymethyl)-1H-pyrazol-4-yl)-N-(pyridin-2-yl)thiazol-2-amine] returned a melting point of 190 °C.

Compound `Cc1sc(Nc2ccccn2)nc1-c1cnn(S(=O)(=O)c2ccc(Cl)cc2)c1` [Compound 1-9, 4-(1-(4-Chlorophenylsulfonyl)-1H-pyrazol-4-yl)-5-methyl-N-(pyridin-2-yl)thiazol-2-amine] came in with a melting point of 232 to 233 °C.

Turning to `Cc1sc(Nc2cccc(C(F)F)n2)nc1-c1cn[nH]c1` [Compound 1-44, N-(6-(Difluoromethyl)pyridin-2-yl)-5-methyl-4-(1H-pyrazol-4-yl)thiazol-2-amine], the melting point was in the range of 269 to 271 °C.

Compound `Cc1ccnc(Nc2nc(-c3c[nH]nc3N3CCOCC3)cs2)n1` [Compound 1-60, N-(4-Methylpyrimidin-2-yl)-4-(3-morpholino-1H-pyrazol-4-yl)thiazol-2-amine] registered a melting point of 260 °C.

In turn, `c1csc(Nc2nc(-c3cn[nH]c3)cs2)n1` [Compound 1-42, 4-(1H-Pyrazol-4-yl)-N-(thiazol-2-yl)thiazol-2-amine] had a melting point of 277 to 280 °C.

Compound `c1ccc(-c2n[nH]cc2-c2csc(Nc3ccccn3)n2)cc1` [Compound 1-37, 4-(3-Phenyl-1H-pyrazol-4-yl)-N-(pyridin-2-yl)thiazol-2-amine] returned a melting point of 229 to 231 °C.

Compound `Cc1ccnc(Nc2nc(-c3cn[nH]c3)c(Cl)s2)n1` [Compound 1-49, 5-Chloro-N-(4-methylpyrimidin-2-yl)-4-(1H-pyrazol-4-yl)thiazol-2-amine] displayed a melting point of 243 °C.
